Assay results published in ChEMBL document CHEMBL3271945, “Azabicyclo chemistry. 6. An investigation of one of the chemical parameters for analgetic activity. Synthesis of 2-methyl-2-azabicyclo[3.3.1]non-6-ene and -non-7-ene” (J Med Chem, 1977).
Activity calls are given as the source filed them. The rule behind the calls is not given here.

What was measured:
Mus musculus [1] = experiment: Analgetic activity in sc dosed mouse by hot-plate method; type: functional
Mus musculus [2] = experiment: Analgetic activity in mouse at 100 mg/kg, sc by hot-plate method; type: functional, organism-based; set-up: dose 100 mg/kg
Mus musculus [3] = experiment: Toxicity in mouse at 100 mg/kg, sc; type: organism-based; set-up: dose 100 mg/kg, route subcutaneous; conditions: in vivo
Mus musculus [4] = experiment: Analgetic activity in mouse at 50 mg/kg, sc by hot-plate method; type: functional, organism-based; set-up: dose 50 mg/kg

Question: `CN1CC[C@H]2C[C@H]1Cc1ccc(O)cc12` was tested. Which ED50 (Mus musculus [1]) did it give?
Answer: 4.5 mg/kg

Question: How did the Activity (Mus musculus [2]) turn out when `CN1CCC2CC1C[C@@H](O)C2` (stereo partly drawn) was run?
Answer: inactive

Question: For `CN1CC[C@]23c4c5ccc(O)c4O[C@H]2[C@@H](O)C=C[C@H]3[C@H]1C5` [MORPHINE], which ED50 (Mus musculus [1]) is on record?
Answer: 1.2 mg/kg

Question: With `CN1CC[C@@H]2C=CC[C@@H]1C2` as the compound, how does the Activity (Mus musculus [3]) read?
Answer: Toxic

Question: And the Activity (Mus musculus [4])?
Answer: inactive

Question: How did the ED50 (Mus musculus [1]) turn out when `CN1CCC2CC(=O)CC1C2` (stereo not drawn) was run?
Answer: 40 mg/kg

Question: `CN1CC[C@@H]2CC=C[C@@H]1C2` was tested. Which Activity (Mus musculus [2]) did it give?
Answer: inactive

Question: `CN1CC[C@@]2(C)C[C@H]1Cc1ccccc12` was tested. Which ED50 (Mus musculus [1]) did it give?
Answer: 11 mg/kg
